US11142796B2, “MIR-18B for use as a marker of cancer progression and target for therapies to treat cancer” (SUTTER WEST BAY HOSPITALS, priority 2012, dated 2021)
“Also recorded” adds a separate entry of the source.

Tests used:
miR-18b expression = miR-18b expression by miR qRT-PCR in drug-treated melanoma cells; assay type: cell-based, human
Source text: The DO4, WM3211, 1205-Lu, C8161.9, WM278 and Lox melanoma cell lines were obtained and propagated as described in Dar et al., J Biol Chem 286:16606-14 (2011). Normal human melanocytes (HEM) were purchased from Lifeline cell technology and grown in LL-0027 media (Lifeline cell technology, Walkersville Md.). Plasmids miRNASelect™ pEP-miR Null control vector (pEP Null), miRNASelect™ pEP-hsa-mir-18b expression vector (pEP miR-18b) (Cell Biolabs Inc, San Diego Calif.) were purchased. TaqMan probes for hsa-miR-18b and negative control pre-miR (cont. miR) were purchased from Applied Biosystems (Foster City, Calif.). Sub-confluent cells (60-70% confluent) were treated with 5-AZA-2′-deoxycytidine (5AZA) (Sigma Aldrich, St. Louis Mo.) dissolved in dimethyl-sulfoxide. Cells treated with vehicle served as control. Transient transfections were carried out by Lipofectamine-2000 (Invitrogen Life Technologies, Carlsbad, Calif.) following the manufacturer's protocol.
Mature miRNAs and other mRNAs were assayed using the TaqMan MicroRNA Assays and Gene Expression Assays (Applied Biosystems), respectively, as previously described in Dar et al., J Biol Chem 286:16606-14 (2011).

LOX human melanoma cells [1] = assay: Cell cycle analysis, LOX; assay type: cell-based; details: LOX cells transfected with miR-18b
Protocol: (§1) Cell viability, colony formation and flow cytometry analysis were performed as described previously in Dar et al., J Biol Chem 286:16606-14 (2011); and Dar et al., J Invest Dermatol 130:2071-9 (2010)).

LOX human melanoma cells [2] = assay: Cell proliferation, LOX; assay type: cell-based; details: LOX cells transfected with miR-18b
Protocol: as §1

[3] = tested on: E-cadherin, vimentin, N-cadherin and slug; assay: EMT markers by immunofluorescence and Western blot; assay type: cell-based, human; details: miR-18b overexpression in 1205-Lu
Protocol: (§2) Cell lysates were prepared in PBS containing 1×Halt protease inhibitor cocktail and 1×Halt phosphatase inhibitor cocktail (Pierce, Rockford, Ill.) centrifuged at 3500 r.p.m. for 10 min at 4° C. Proteins (10-15 ug) from each sample were subjected to SDS/polyacrylamide gel electrophoresis (PAGE) and transferred onto a nitrocellulose membrane. Target proteins were detected by using specific antibodies against MDM2, p53, p21, BCL-2 and GAPDH (Santa Cruz Biotechnology, Santa Cruz, Calif.), and PUMA, BCL-XL (Cell Signaling Technology, Danvers, Mass.).
1205-Lu cells were plated in 8-well plate chamber. Immunofluorescence assay was performed as previously described in Dar et al., Oncogene 28: 866-75 (2009). N-cadherin, vimentin, slug and E-cadherin antibodies (Cell signaling) were used in the assay.

1205-Lu melanoma cells [4] = assay: Migration assay (boyden chamber); assay type: cell-based, human; details: miR-18b over-expression; vs cont.miR
Protocol: (§3) For 1205-Lu cells boyden chamber inserts were coated with 15 μl matrigel at 6 mg/ml protein. For migration assay boyden chamber inserts were not coated and cells were directly added to them.

LOX human melanoma cells [5] = assay: Colony formation, LOX; assay type: cell-based; details: LOX cells transfected with miR-18b
Protocol: as §1

1205-Lu cells [6] = assay: Cell cycle analysis (flow cytometry), 1205-Lu; assay type: cell-based, human
Protocol: as §1

1205-Lu cells [7] = assay: Colony formation assay, 1205-Lu; assay type: cell-based, human
Protocol: as §1

1205-Lu cells [8] = assay: Cell proliferation / viability, 1205-Lu; assay type: cell-based, human
Protocol: as §1

1205-Lu melanoma cells [9] = assay: Invasion assay (matrigel-coated boyden chamber); assay type: cell-based, human; details: miR-18b over-expression; vs cont.miR
Protocol: as §3

1205-Lu cells [10] = assay: Apoptosis assay, 1205-Lu; assay type: cell-based, human
Protocol: as §1

3′UTR of MDM2 = assay: Luciferase reporter assay with MDM2-3′UTR; assay type: cell-based, human
Source text: The 3′-UTR region of MDM2 containing target site sequences complementary to the seed sequence of miR-18b were cloned downstream of the luciferase gene in the pMIR-REPORT luciferase vector (Ambion, Cambridge Mass.), and the resultant vectors were named MDM2-3′UTR. Mutated 3′UTR sequences of MDM2 complementary to miR-18b were cloned in the same vector and the resultant vectors named MDM2-Mut 3′UTR. For reporter assays, cells were transiently transfected with wild-type or mutant reporter plasmid and miR-18b. Firefly luciferase activities were measured by using the Dual Luciferase Assay (Promega, Madison, Wis.) 48 hr after transfection and the results were normalized with Renilla luciferase. Each reporter plasmid was transfected at least three times (on different days) and each sample was assayed in triplicate.

[11] = tested on: MDM2 (and the p53 pathway); assay: Western blot analysis of MDM2 and p53 pathway proteins; assay type: cell-based, human
Protocol: as §2

1205-Lu cells [12] = assay: Subcutaneous tumor growth of 1205-Lu cells stably expressing miR-18b; assay type: in vivo, nude mice
Protocol: 1205-Lu cells were transfected with pEP Null or pEP miR-18b vectors (Cellbiolabs, San Diego Calif.) and selected with puromycin (1 μg/mL). For in-vivo studies as described previously in Dar et al., J Invest Dermatol 130:2071-9 (2010), 1×10^6 cells were injected into nude mice subcutaneously and tumor growth was followed for 24 days. All animal care was in accordance with the institutional guidelines.

[13] = tested on: C8161.9 melanoma cell lines; assay: Cell survival, MDM2 and p53 expression in mutant p53 cells; assay type: cell-based, human; details: C8161.9 cells harboring mutant p53
Protocol: as §1, §2

LOX human melanoma cells [14] = assay: Apoptosis assay, LOX; assay type: cell-based; details: LOX cells transfected with miR-18b
Protocol: as §1

chromatin modifications = assay: Chromatin immunoprecipitation analysis after miR-18b overexpression; assay type: cell-based, human
Protocol: Chromatin immunoprecipitation analysis was performed using the EZ-ChIP kit (Upstate Biotechnology, Charlottesville, Va.) according to the manufacturer's directions and as described in Majid et al., Carcinogenesis 30: 662-70 (2009). Antibodies used in the immunoprecipitations were purchased from Upstate Biotechnology and Ambion (Austin, Tex.) and were specific for acetyl histone H3 (06-599), acetyl histone H4 (06-866), dimethyl-histone H3 lysine 4 (07-030), trimethyl-histone H3 lysine 4(07-473), dimethyl-histone H3 lysine 9 (07-441) and trimethyl-histone H3 lysine 9 (ab8898). The immunoprecipitated DNA was eluted in a total volume of 50 μl and 2 μl were used for PCR.

[15] = stable expression of miR-18b, vs control vector
[16] = transient transfection, vs cont.miR
[17] = 1205-Lu co-transfection with empty vector or MDM2-expressing vector
[18] = 1205-Lu stably overexpressing miR-18b
[19] = transient miR-18b overexpression

Nc1ncn([C@H]2C[C@H](O)[C@@H](CO)O2)c(=O)n1 [5AZA, 5-AZA-2′-deoxycytidine]
miR-18b expression (miR-18b expression; five melanoma cell lines (C8161.9, LOX, 1205-Lu, DO4, WM278), 5AZA 5 μM, vs vehicle): significant upregulation

N.N.[Cl][Pt][Cl] [cisplatin]
miR-18b expression (miR-18b expression; 1205-Lu cells, 2 nM cisplatin for 48 hr, vs vehicle-treated cells): significantly upregulated
miR-18b expression (miR-18b expression; 1205-Lu cells, 2 nM cisplatin for 48 hr, vs vehicle-treated cells, listed as Cisplatin): induced expression of miR-18b

miR-18b: microRNA, mature miR-18b-5p UAAGGUGCAUCUAGUGCAGUUAG (SEQ ID NO:1); transfected or stably expressed from pEP-hsa-mir-18b expression vector (listed as Homo sapiens)
S-phase (LOX human melanoma cells [1]): significant decrease
cell proliferation (LOX human melanoma cells [2]): significant decrease
epithelial biomarker E-cadherin [3]: significant upregulation
mesenchymal markers vimentin, N-cadherin and slug [3]: reduced
migratory ability (1205-Lu melanoma cells [4]): significantly suppressed
colony formation (LOX human melanoma cells [5]): significant decrease
cells in S-phase (1205-Lu cells [6]; [15]): significant decreases
cells in S-phase (1205-Lu cells [6]; transient overexpression, cont.miR 15.5%, p<0.02): 8.05%
colony formation (1205-Lu cells [7]; [15]): significant decreases
colony formation ability (1205-Lu cells [7]; [16]): low colony formation ability
melanoma cell survival (1205-Lu cells [8]; [17]): suppressed melanoma cell survival
cell proliferation with BRAF inhibitor (1205-Lu cells [8]; 1205-Lu transfected with miR-18b vs Neg-miR, treated with dabrafenib, 48 hrs): sensitized melanoma cell lines to BRAF specific inhibitor; also recorded: additive effect
sensitivity to cisplatin cytotoxicity (1205-Lu cells [8]; melanoma cells treated with miR-18b): enhanced sensitivity
cell proliferation (1205-Lu cells [8]; [15]): significantly suppressed
cell proliferation over time (1205-Lu cells [8]; [16]): significantly decreased
invasiveness (1205-Lu melanoma cells [9]): significantly suppressed
apoptotic index (1205-Lu cells [10]; stable expression of miR-18b): significant increase
apoptosis (1205-Lu cells [10]; transient overexpression, cont.miR 2.87%, p<0.01): 11.30%
reporter activity, mutant 3′UTR (3′UTR of MDM2; MDM2-Mut 3′UTR, 1205-Lu and LOX cells): no effect
reporter expression, MDM2-3′UTR construct (3′UTR of MDM2; transient co-transfection into 1205-Lu and LOX cells, 48 hr, vs control vector): significant decrease
gene expression (MDM2, p53 pathway) [11, 17]: suppression of MDM2, activation of the p53 pathway
MDM2 expression [11, 18]: significantly downregulated
expression of p53 and PUMA [11, 18]: concomitant increase
p14ARF expression ([11]; following miR-18b overexpression): unchanged
MDM2 at the protein level [11, 19]: significantly suppressed
anti-apoptotic genes BCL2 and BCL-XL [11, 19]: downregulation
pro-apoptotic genes p53 and PUMA [11, 19]: concomitant upregulation
tumor growth in vivo (1205-Lu cells [12]; subcutaneous inoculation into nude mice, followed for 24 days, vs control vector cells): significantly suppressed
MDM2 at the protein level in tumors (1205-Lu cells [12]; subcutaneous tumors, vs control tumors): suppressed
cell survival, MDM2 and p53 expression levels [13]: no effect
apoptosis (LOX human melanoma cells [14]): increase
active chromatin modifications (acetylated histones H3, H4 and H3 di-methylated lysine 4) (chromatin modifications): enrichment
repressive chromatin modifications (2H3K9 and 3H3K9) (chromatin modifications): suppression
